Square brackets hold non-standard residues; d marks the D form. Peptide text beside a SMILES is read from it. * marks the point of attachment. X1 = CN1/C(=C/C=C/C=C/C2=[N+](CCCCCC(=O)*)c3ccc(S(=O)(=O)[O-])cc3C2(C)C)C(C)(C)c2cc(S(=O)(=O)O)ccc21; Hyp = O=C(O)[C@@H]1C[C@@H](O)CN1; Nlys = NCCCCNCC(=O)O; Ahx = NCCCCCC(=O)O
What was measured:
cartilage = assay: In vivo and ex vivo fluorescence imaging of cartilage uptake and retention in nude mice; parameters: species or system mouse; conditions: 1 nmol i.v., 0-96 h
Text: All procedures for mouse maintenance and experiments strictly followed the policy of the Experimental Animal Ethics Committee of the Fifth Affiliated Hospital of Sun Yat‐sen University (protocol numbers: 00361, 00436). Balb/c nu mice (male, 10‐18 weeks old) were used for the general in vivo imaging experiments (Figure 3c–f; Figures S10–S14, Supporting Information). For Figure 3g,h and Figure S16 (Supporting Information), neonatal Balb/c mice (7 days old) were used. Female Balb/c mice (74 weeks old versus 12 weeks old) were used in the aged joint imaging experiment reported in Figure 4a–c and Figure S17 (Supporting Information). The RA model was made using female Balb/c mice (6‐8 weeks old) by intraperitoneal injection of an anti‐collagen antibody cocktail (1.5 mg per mouse; Chondrex, 53100) followed by selective subcutaneous injection of lipopolysaccharide (LPS, 12.5 µg per mouse, Chondrex, 53100) into the left hind paw three days later.^[ [30] ^] C57BL/6J mice (male, 6–8 weeks old) were used for the biocompatibility tests (Figures S23–S25, Supporting Information).
(§1) Typically, the fluorescence peptides or peptoids were prepared at a dose of 1 nmol (10 µM in 100 µL of 1× PBS buffer) and injected into the tail vein of each mouse 2 h prior to fluorescence imaging with an IVIS Spectrum imager (PerkinElmer Lumina III). For Figure 4, Figures S17 and S18 (Supporting Information) (joint aging and RA) and Figure S27 (Supporting Information), 2 nmol of Cy5‐(NlysO)7 (20 µM in 100 µL of 1× PBS buffer) were i.v. administered to each mouse. For 1‐week‐old neonatal mice, 1 nmol of Cy5‐(NlysO)7 (20 µM in 50 µL of 1× PBS buffer) was intravenously injected into each mouse. All in vivo imaging was performed 2 h post probe injection with the IVIS Spectrum imager (PerkinElmer, fluorescence: ex/em: 620/670 nm, exposure: 1 s, bing: 4, F/Stop: 2; field of view: A/B/C/Z). Mice were anesthesia with 3% isoflurane (RWD, R510‐22‐10) during image acquisition. Hair in the knee areas was removed before fluorescence imaging for mice in Figure 4a and Figure S17 (Supporting Information). The mice were euthanized following the final image acquisition and occasionally imaged again after skin and organ removal. Next, the airways, ankles, ears, paws, knees, tails, spines, and chest ribs were collected, imaged, and saved for subsequent histology analysis. All acquired fluorescence images were analyzed using the Living Image software (PerkinElmer). The fluorescence signal from each specimen was measured by quantifying the average radiation efficiency within the selected oval‐shaped regions‐of‐interest.
For the cartilage retention experiments (Figures S11 and S12, Supporting Information), Cy5‐(NlysO)7 (10 µM in 100 µL of 1× PBS buffer) was administered via tail vein to four male Balb/c nu mice (10 weeks old) at 2, 24, 48, and 96 h respectively, prior to fluorescence imaging using an IVIS Spectrum imaging system (ex/em: 620/670 nm, exposure: 1 s, bing: 4, F/Stop: 2). Following euthanasia, their cartilaginous tissues were harvested and imaged. The fluorescence images were analyzed and quantified as described above.

[1] = Organ fluorescence 2 h post-injection (clearance route); format: in vivo, mouse; conditions: nude mice, organs isolated 2 h post i.v. injection of 1 nmol
Description: as §1

[2] = Serum stability test (HPLC); format: in vitro ADME, mouse; conditions: 37 °C; for degradation in serum (in words): 25% v/v mouse serum, 24 h and even after 48 h; for degradation in serum (in words) / metabolised at 24 h: HPLC UV 646 nm; for degradation in serum (in words) / HPLC chromatogram after 48 h of serum incubation / metabolised at 24 h: n = 3; for HPLC peak shape and elution time after 24 h of serum incubation: mouse serum; for HPLC peak shape and elution time after 24 h of serum incubation / HPLC chromatogram after 48 h of serum incubation: HPLC 646 nm; for HPLC chromatogram after 48 h of serum incubation: 25% mouse serum, 48 h vs 10 min; for metabolised at 24 h: 25% v/v mouse serum in 1× PBS, 10 nmol probe, peak area normalized to 10 min, read-out: percent of the peptides proteolyzed after 24 h of serum incubation
Description: Cy5‐labeled peptidomimetic probes (10 nmol) were incubated in 25% v/v mouse serum (Biosharp, BL1053A diluted in 1× PBS) at 37 °C. Aliquots (200 µL) were taken periodically at 0 (deadtime: ≈10 min), 2, 24, and 48 h, and added to 400 µL of 3.75% trichloroacetic acid in acetonitrile at 4 °C. Then, all samples were centrifuged to remove the precipitated serum proteins at 13800 g for 10 min at 4 °C. The supernatant (150 µL) was taken to mix with 550 µL of water (with 0.1% TFA) to centrifuge again at 2630 g for 5 min at 4 °C. Five microliter of the supernatant was mixed with 200 µL of water containing 0.1% TFA as the final samples for HPLC analysis at room temperature monitored by absorbance at 646 nm with the integral area of the intact fraction recorded. The peak area for the 10 min time point was designated as 100% intact, and each peak area at successive time points was normalized to the 10 min peak to calculate the percent compound remaining. All the experiments were repeated three times.

[3] = Routine (whole) blood tests after repeated dosing; format: in vivo, mouse; conditions: C57BL/6J mice, 3 weekly i.v. doses of 2 nmol over 14 days, n = 5
Description: Whole blood tests: Each C57BL/6J mouse (6–8 weeks old) was intravenously injected with 100 µL of PBS buffer or with each peptide or peptoid probe (2 nmol in 100 µL 1× PBS buffer per mouse) on days 0, 7, and 14. The mice were sacrificed on day 15, 24 h after the final injection. The heart, liver, spleen, lungs, and kidneys were collected from each mouse and processed into formalin‐fixed paraffin‐embedded sections for histological evaluation with H&E staining. Whole blood was collected. Both H&E and blood sample analyses were performed by Wuhan Servicebio.

[4] = 25% v/v mouse serum (Biosharp, BL1053A diluted in 1× PBS); conditions: 37 °C, up to 48 h

Row | Compound | clearance route from organ fluorescence [1] | routine blood analyses vs PBS control group [3] | in vivo retention in joints and ribs compared to peptide sequences Cy5-(GKO)7 and Cy5-R8 (cartilage) | HPLC peak shape and elution time after 24 h of serum incubation [2] | serum stability (degradation in mouse serum) [4] | other results
1 | CN1/C(=C/C=C/C=C/C2=[N+](CCCCCC(=O)NCCCCCC(=O)NCC(=O)N3C[C@H](O)C[C@H]3C(=O)NCC(=O)N3C[C@H](O)C[C@H]3C(=O)NCC(=O)N3C[C@H](O)C[C@H]3C(=O)NCC(=O)N3C[C@H](O)C[C@H]3C(=O)NCC(=O)N3C[C@H](O)C[C@H]3C(=O)NCC(=O)N3C[C@H](O)C[C@H]3C(=O)NCC(=O)N3C[C@H](O)C[C@H]3C(N)=O)c3ccc(S(=O)(=O)[O-])cc3C2(C)C)C(C)(C)c2cc(S(=O)(=O)O)ccc21 [Cy5‐(GO)7] ({X1-Ahx}-G[Hyp]G[Hyp]G[Hyp]G[Hyp]G[Hyp]G[Hyp]G[Hyp]-NH2) | – | – | – | – | – | HPLC chromatogram after 48 h of serum incubation [2]: showed prominent peaks from peptide proteolysis; metabolised at 24 h [2]: ~25%
2 | Cy5‐(GNlysO)7 | – | – | – | – | hardly degraded in the serum even after 48 h | –
3 | Cy5‐(NlysO)7 | – | – | – | – | hardly degraded in the serum even after 48 h | –
4 | CN1/C(=C/C=C/C=C/C2=[N+](CCCCCC(=O)NCCCCCC(=O)NCC(=O)N[C@@H](CCCCN)C(=O)N3C[C@H](O)C[C@H]3C(=O)NCC(=O)N[C@@H](CCCCN)C(=O)N3C[C@H](O)C[C@H]3C(=O)NCC(=O)N[C@@H](CCCCN)C(=O)N3C[C@H](O)C[C@H]3C(=O)NCC(=O)N[C@@H](CCCCN)C(=O)N3C[C@H](O)C[C@H]3C(=O)NCC(=O)N[C@@H](CCCCN)C(=O)N3C[C@H](O)C[C@H]3C(=O)NCC(=O)N[C@@H](CCCCN)C(=O)N3C[C@H](O)C[C@H]3C(=O)NCC(=O)N[C@@H](CCCCN)C(=O)N3C[C@H](O)C[C@H]3C(N)=O)c3ccc(S(=O)(=O)[O-])cc3C2(C)C)C(C)(C)c2cc(S(=O)(=O)O)ccc21 [Cy5‐(GKO)7] ({X1-Ahx}-GK[Hyp]GK[Hyp]GK[Hyp]GK[Hyp]GK[Hyp]GK[Hyp]GK[Hyp]-NH2) | might be mainly cleared through kidneys | – | – | – | – | HPLC chromatogram after 48 h of serum incubation [2]: showed prominent peaks from peptide proteolysis; metabolised at 24 h [2]: ~25%
5 | Cy5‐Nlys7 | – | – | – | – | No significant changes in peak shape and elution time even post 48 h | –
6 | Cy5‐(GNlys)7 | – | – | – | – | hardly degraded in the serum even after 48 h | –

Further lines, with some results ahead:

Row | clearance route from organ fluorescence [1] | routine blood analyses vs PBS control group [3] | Compound | in vivo retention in joints and ribs compared to peptide sequences Cy5-(GKO)7 and Cy5-R8 (cartilage) | HPLC peak shape and elution time after 24 h of serum incubation [2] | serum stability (degradation in mouse serum) [4] | other results
7 | might be mainly cleared through kidneys | None of the measurements | CN1/C(=C/C=C/C=C/C2=[N+](CCCCCC(=O)NCCCCCC(=O)NCC(=O)N(CCCCN)CC(=O)N3C[C@H](O)C[C@H]3C(=O)NCC(=O)N(CCCCN)CC(=O)N3C[C@H](O)C[C@H]3C(=O)NCC(=O)N(CCCCN)CC(=O)N3C[C@H](O)C[C@H]3C(=O)NCC(=O)N(CCCCN)CC(=O)N3C[C@H](O)C[C@H]3C(=O)NCC(=O)N(CCCCN)CC(=O)N3C[C@H](O)C[C@H]3C(=O)NCC(=O)N(CCCCN)CC(=O)N3C[C@H](O)C[C@H]3C(=O)NCC(=O)N(CCCCN)CC(=O)N3C[C@H](O)C[C@H]3C(N)=O)c3ccc(S(=O)(=O)[O-])cc3C2(C)C)C(C)(C)c2cc(S(=O)(=O)O)ccc21 [Cy5‐(GNlysO)7] ({X1-Ahx}-G[Nlys][Hyp]G[Nlys][Hyp]G[Nlys][Hyp]G[Nlys][Hyp]G[Nlys][Hyp]G[Nlys][Hyp]G[Nlys][Hyp]-NH2) | stronger retention in the joints and ribs in vivo | No significant changes in peak shape and elusion time were noted | – | degradation in serum (in words) [2]: hardly degraded
8 | may be cleared by the ki dneys and liver | None of the measurements | CN1/C(=C/C=C/C=C/C2=[N+](CCCCCC(=O)NCCCCCC(=O)N(CCCCN)CC(=O)N(CCCCN)CC(=O)N(CCCCN)CC(=O)N(CCCCN)CC(=O)N(CCCCN)CC(=O)N(CCCCN)CC(=O)N(CCCCN)CC(N)=O)c3ccc(S(=O)(=O)[O-])cc3C2(C)C)C(C)(C)c2cc(S(=O)(=O)O)ccc21 [Cy5‐Nlys7] ({X1-Ahx}-[Nlys][Nlys][Nlys][Nlys][Nlys][Nlys][Nlys]-NH2) | stronger retention in the joints and ribs in vivo | No significant changes in peak shape and elusion time were noted | – | –
9 | may be cleared by the ki dneys and liver | None of the measurements | CN1/C(=C/C=C/C=C/C2=[N+](CCCCCC(=O)NCCCCCC(=O)NCC(=O)N(CCCCN)CC(=O)NCC(=O)N(CCCCN)CC(=O)NCC(=O)N(CCCCN)CC(=O)NCC(=O)N(CCCCN)CC(=O)NCC(=O)N(CCCCN)CC(=O)NCC(=O)N(CCCCN)CC(=O)NCC(=O)N(CCCCN)CC(N)=O)c3ccc(S(=O)(=O)[O-])cc3C2(C)C)C(C)(C)c2cc(S(=O)(=O)O)ccc21 [Cy5‐(GNlys)7] ({X1-Ahx}-G[Nlys]G[Nlys]G[Nlys]G[Nlys]G[Nlys]G[Nlys]G[Nlys]-NH2) | stronger retention in the joints and ribs in vivo | No significant changes in peak shape and elusion time were noted | – | degradation in serum (in words) [2]: hardly degraded
